# Where “and” joins values, the source holds several entries; their conditions need not be identical. Identical values can stand only once.
# How the values were obtained:
# Type in all cases: physicochemical
# [1] = Slurry experiments at 20° C. and 40° C.; settings: slurry 40° C., Chloroform; the solids dissolved after 14 days
# Method: A total of 68 slurry experiments were performed with brigatinib both at room temperature (20° C.) and 40° C., using 34 solvents. In all cases, a solvent volume of 250 μL was used. The slurries were stirred for two weeks. At the end of the slurry time, the vials were centrifuged and solids and mother liquids separated. The solids were analyzed wet and dry by XRPD and digital imaging. The measuring plates were then stored at ambient conditions for 3-4 weeks and another XRPD was obtained of the solid, any form change is shown by an arrow.
# [2] = Quantitative solubility testing, set of 24 solvents (HPLC); settings: for solubility at 24 h: 20 °C
# Method: Quantitative solubility testing was performed on brigatinib starting material, employing a set of 24 solvents (DMSO, heptane and water were performed in triplicate). In a vial, about 40 mg of starting material, 400 μL of solvent and a stir bar were added. After stirring for 24 h at 20° C. […], the liquid was retrieved, filtered, and analyzed for API content by HPLC.
# [3] = Thermocycling experiments; settings: thermocycling 5-40° C., 8 cycles
# Method: A total of 33 slurries and 1 solution (chloroform) of starting material in solvents were prepared at room temperature. The mixtures were placed in a Crystal16™ to undergo the following temperature profile:
# 1. Heating at a rate of 5° C./h until reaching 40° C., with stirring (500 rpm)
# 2. Cooling at a rate of 5° C./h until 5° C., with stirring (200 rpm)
# 3. Aging for 30 min at 5° C.
# After completion of the cycling program, the solids were separated from the mother liquids by centrifugation, dried under 200 mbar for 48 hours (2-ethoxyethanol for 283 hours) and analyzed by XRPD and digital imaging. For the applied crystallization conditions and corresponding obtained solid forms, see Table 24. Solid form (or mixture) following the arrow (→) was obtained upon remeasurement by XRPD after storage of the measuring plates at ambient conditions for 5 weeks.
# [4] = Freeze-drying feasibility study; settings: organic solvent or mixture, thermodynamic from solid, data obtained from freeze drying experiment
# Method: Freeze-drying. Six freeze-drying experiments were performed with samples of Form A as described in Table 10. Samples 1, 2, and 4 remained mostly crystalline, but samples 3 and 5 were amorphous and contained about 15-16% residual solvent. Sample 6 was amorphous and contained about 7% residual solvent. Forms E and F were produced using this method. However, due to the variable form and solvation, freeze-drying was not further employed to obtain amorphous brigatinib.
# [5] = Crash crystallization with anti-solvent addition
# Method: In the crash-crystallization experiments, 34 different crystallization conditions were applied, using 6 different solvents and 24 different anti-solvents (see Table 17). The anti-solvent addition experiments were performed forward. For each solvent, a stock solution was prepared, the concentration of brigatinib in each case being that attained at saturation at ambient temperature after equilibration for 24 hours before filtering.
# For each experiment, the anti-solvent was added to each solvent vial, with a solvent to anti-solvent ratio of 1:0.25. In the cases where no precipitation occurred, this ratio was increased to 1:1, and if again no precipitation occurred the ratio was increased to 1:4, with a waiting time of 60 minutes between the additions (up to the third addition) and 35 minutes between the third addition and fourth addition. When no crystallization occurred or not enough solids precipitated for separation, samples were kept at 5° C. for 17 hours. The precipitated solids were separated from the liquids by centrifugation and decantation. When decantation could not be applied, the liquid was carefully removed using Pasteur's pipettes. The solids were dried at 200 mbar for 17 hours and analyzed by XRPD and digital imaging. In the cases where no precipitation occurred, the solvents were evaporated at 200 mbar for 17 hours prior to lowering the vacuum to 5 mbar. All obtained solids were analyzed by XRPD and digital imaging. The measuring plates containing the final solid were stored at ambient temperature for 5 weeks. The solid form was assessed again by XRPD. The arrows in Table 18 indicate if the form changed during storage.
# [6] = Vapor diffusion into solution experiments; settings: solvent Cis-Decahydronaphthalene, anti-solvent vapor MethylCyclohexane, room temperature, two weeks; dry
# Method: For the vapor diffusion into solution experiments, saturated solutions of brigatinib were exposed to anti-solvent vapors at room temperature for two weeks. An aliquot of saturated solution was transferred to a vial which was left open and placed in a closed container with anti solvent (see Table 20). After two weeks, the samples were evaluated for solid formation. Where solids were present, the liquids were separated from the solids, which were then dried at full vacuum. In the cases where no precipitation was observed, the solvents were placed overnight at 5° C. to promote precipitation. If no solids were present, the liquids were evaporated at 200 mbar for 75 hours, or, if still no solids were present, the liquids were further evaporated at 10 mbar for a maximum of 10 days. All obtained solids were analyzed dry by XRPD and digital imaging.
structure (smiles),measurement,setting,value
COc1cc(N2CCC(N3CCN(C)CC3)CC2)ccc1Nc1ncc(Cl)c(Nc2ccccc2P(C)(C)=O)n1 [Brigatinib],Form dry (XRPD),[1],A + E
same,solubility at 24 h,"[2]; 1,2-dichloroethane, organic solvent or mixture, thermodynamic from solid, 1,2-Dichloroethane",38300 µg/mL
same,solubility at 24 h,"[2]; 1,2-dimethoxyethane, organic solvent or mixture, thermodynamic from solid, 1,2-Dimethoxyethane",1130 µg/mL
same,solubility at 24 h,"[2]; 1,4-dioxane, organic solvent or mixture, thermodynamic from solid, 1,4-Dioxane",4010 µg/mL
same,solubility at 24 h,"[2]; 1-butanol, organic solvent or mixture, thermodynamic from solid",17700 µg/mL
same,solubility at 24 h,"[2]; 2-butanone, organic solvent or mixture, thermodynamic from solid",1110 µg/mL
same,solubility,"[2]; Dimethyl Sulfoxide, 20° C., 24 h, triplicate",3020 µg/mL and 3050 µg/mL
same,solubility,"[2]; Ethyl Formate, 20° C., 24 h",990 µg/mL
same,solubility at 24 h,"[2]; N,N-dimethylacetamide, organic solvent or mixture, thermodynamic from solid",470 µg/mL
same,solubility at 24 h,"[2]; acetone, organic solvent or mixture, thermodynamic from solid",690 µg/mL
same,solubility at 24 h,"[2]; acetonitrile, organic solvent or mixture, thermodynamic from solid",360 µg/mL
same,solubility at 24 h,"[2]; butyl acetate, organic solvent or mixture, thermodynamic from solid",320 µg/mL
same,solubility at 24 h,"[2]; chloroform, organic solvent or mixture, thermodynamic from solid, sample dissolved, no solids harvested",> 182000 µg/mL
same,solubility at 24 h,"[2]; cyclohexane, organic solvent or mixture, thermodynamic from solid, UR = under range",< 10 µg/mL
same,solubility at 24 h,"[2]; dichloromethane, organic solvent or mixture, thermodynamic from solid, sample dissolved, no solids harvested",> 197000 µg/mL
same,solubility at 24 h,"[2]; dimethyl sulfoxide, organic solvent or mixture, thermodynamic from solid, triplicate",2950 µg/mL
same,solubility at 24 h,"[2]; ethanol, organic solvent or mixture, thermodynamic from solid",6710 µg/mL
same,solubility at 24 h,"[2]; ethyl acetate, organic solvent or mixture, thermodynamic from solid",420 µg/mL
same,solubility at 24 h,"[2]; isopropanol, organic solvent or mixture, thermodynamic from solid",1550 µg/mL
same,solubility at 24 h,"[2]; isopropyl acetate, organic solvent or mixture, thermodynamic from solid, UR = under range",< 10 µg/mL
same,solubility at 24 h,"[2]; methanol, organic solvent or mixture, thermodynamic from solid",35300 µg/mL
same,solubility at 24 h,"[2]; n-heptane, organic solvent or mixture, thermodynamic from solid, triplicate, UR = under range",< 10 µg/mL
same,solubility at 24 h,"[2]; nitromethane, organic solvent or mixture, thermodynamic from solid",410 µg/mL
same,solubility at 24 h,"[2]; p-xylene, organic solvent or mixture, thermodynamic from solid",350 µg/mL
same,"Residual solids after solubility testing, form by XRPD","[2]; set of 24 solvents, 20° C., 24 h",Form A
same,solubility at 24 h,"[2]; tetrahydrofuran, organic solvent or mixture, thermodynamic from solid, UR = under range",< 10 µg/mL
same,solubility at 24 h,"[2]; water, thermodynamic from solid, triplicate",90 µg/mL
same,Form mother liquid (XRPD),[3]; Chloroform,A + G
same,Form mother liquid (XRPD),[3]; n-Heptane,A + L
same,solubility,"[4]; 2,2,2-trifluoroethanol/water (80:20)",> 159000 µg/mL
same,solubility,"[4]; 2,2,2-trifluoroethanol/water (90:10)",> 172000 µg/mL
same,solubility,"[4]; 2,2,2-trifluoroethanol",> 224000 µg/mL
same,Form (XRPD),"[5]; solvent 1,4-Dioxane, anti-solvent Water, S:AS 1:4, no precipitation",A + H
same,Form (XRPD),"[5]; solvent Chloroform, anti-solvent tert-Butyl methyl ether, S:AS 1:4, precipitation, wet",A + G
same,Form (XRPD),"[5]; solvent Ethanol, anti-solvent Water, S:AS 1:4, no precipitation",A + H
same,Form (XRPD),[6],Am

# Reference: US11427605B2, “Crystalline forms of 5-chloro-N4-[-2-(dimethylphosphoryl) phenyl]-N2-{2-methoxy-4-[4-(4-methylpiperazin-1-yl) piperidin-1-yl] phenyl} pyrimidine-2,4-diamine” (ARIAD Pharmaceuticals, Inc., priority 2014, dated 2022)
